The values that follow come from US12018011B2, “Macrocyclic compounds and compositions, and methods of preparing and using the same” (Kura Oncology, Inc., priority 2021, dated 2024).

Usually IC50 stands for the concentration at which inhibition is half-maximal.

The target in the experiment is T1, Recombinant human farnesyl transferase (FTase) (Homo sapiens, UniProt P49356).
T1 construct: purchased Crelux (Martinsried, Germany)
Nature of the experiment: FTase fluorescence assay (farnesylation of dansyl-GCVLS peptide). It counts as biochemical. To be noted: recombinant human FTase 2.5 nM, Dansyl-GCVLS 85 nM, FPP 30 nM, 30° C., 50 minutes. The source says: T24/83 cell line was purchased from the European Collection of Authenticated Cell Cultures (Salisbury, UK). Recombinant human farnesyl transferase (FTase) and geranylgeranyl transferase type-1 (GGTase) were obtained from Crelux (Martinsried, Germany). Dansyl labelled GCVLS peptide was purchased from Bachem (Torrance, CA), and Dansyl labelled GCVLL peptide was purchased from Bio Synthesis (Lewisville, TX). Farnesyl Pyrophosphate (FPP) and Geranylgeranyl pyrophosphate (GGPP) were purchased from Cayman (Ann Arbor, MI).
Specific biochemical activity of the compounds disclosed herein as FTase inhibitors was determined by measuring the ability of the compounds to block the farnesylation by recombinant FTase of fluorescent (i.e., dansyl-labeled) test substrates derived from the CAAX box of farnesylated proteins, such as the peptide GCVLS.
The IC50 value of the compounds disclosed herein as inhibitors of Ftase and/or GGTase, was determined by measuring the concentration (provided in nM) necessary to achieve inhibition of enzyme activity by 50% (IC50). […] Compounds having a low IC50 value against FTase, for example an IC50 (FTase)<100 nM, such as an IC50 (FTase)<10 nM, are preferred. Compounds having a low IC50 value against FTase and a high IC50 value against GGTase, for example an IC50 (FTase)<100 nM, such as an IC50 (FTase)<10 nM, and an IC50 (GGTase)>100 nM, are potent and selective inhibitors of FTase, and are particularly preferred.
The inhibition activities of the compounds disclosed herein against Ftase and GGTase were measured in the respective fluorescence assays as follows:
For the FTase assay, recombinant human FTase (2.5 nM), Dansyl labelled GCVLS peptide (85 nM), FPP (30 nM) and inhibitor were mixed in assay buffer (50 mM Tris, pH 7.5, 10 mM magnesium chloride, 10 μM zinc chloride, 0.08% CHAPS, 5 mM dithiothreitol) and incubated in a total volume of 20 μL at 30° C. for 50 minutes.
For both the FTase assay and GGTase assay, fluorescence intensity was detected (excitation at 340 nm and emission at 486 nm) using EnVision (PerkinElmer; Waltham, MA), IC50 determinations were performed using a sigmoidal dose-response model with Xlfit software (IDBS, Inc.; Boston, MA), and tipifarnib was used as a positive control. All the assay plates for each assay passed the QC criteria (S/B, Z factor).
On to `Cn1cncc1[C@]1(N)c2ccc(Cl)c(c2)CCc2cccc(c2)-c2cc(=O)n(C)c3ccc1cc23` (racemic) [(R)-4, (R)-3-amino-4^4-chloro-2^1-methyl-3-(1-methyl-1H-imidazol-5-yl)-2^1,2^2-dihydro-2(4,6)-quinolina-1,4(1,3)-dibenzenacyclohexaphan-2^2-one], for which the IC50 is over 100 nM.

Take `Cn1cncc1[C@]1(O)c2ccc(Cl)c(c2)OCc2cccc(c2)-c2cc(=O)n(C)c3ccc1cc23` (racemic) [(R)-14, (R)-4^4-chloro-3-hydroxy-2^1-methyl-3-(1-methyl-1H-imidazol-5-yl)-2^1,2^2-dihydro-5-oxa-2(4,6)-quinolina-1,4(1,3)-dibenzenacyclohexaphan-2^2-one]: the IC50 is over 100 nM.

Regarding `Cn1cncc1[C@]1(N)c2ccc(Cl)c(c2)OCc2cccc(c2)-c2cc(=O)n(C)c3ccc1cc23` (racemic) [(R)-15, (R)-3-amino-4^4-chloro-2^1-methyl-3-(1-methyl-1H-imidazol-5-yl)-2^1,2^2-dihydro-5-oxa-2(4,6)-quinolina-1,4(1,3)-dibenzenacyclohexaphan-2^2-one], the IC50 is over 100 nM.

Consider `Cn1cncc1[C@]1(O)c2ccc(C#N)c(c2)OCc2cccc(c2)-c2cc(=O)n(C)c3ccc1cc23` (racemic) [(R)-18, (R)-3-hydroxy-2^1-methyl-3-(1-methyl-1H-imidazol-5-yl)-2^2-oxo-2^1,2^2-dihydro-5-oxa-2(4,6)-quinolina-1,4(1,3)-dibenzenacyclohexaphane-4^4-carbonitrile], for which the IC50 was over 100 nM.

As for `Cn1cncc1[C@]1(N)c2ccc(C#N)c(c2)OCc2cccc(c2)-c2cc(=O)n(C)c3ccc1cc23` (racemic) [(R)-19, (R)-3-amino-2^1-methyl-3-(1-methyl-1H-imidazol-5-yl)-2^2-oxo-2^1,2^2-dihydro-5-oxa-2(4,6)-quinolina-1,4(1,3)-dibenzenacyclohexaphane-4^4-carbonitrile], the IC50 is over 100 nM.

For `[2H]C([2H])([2H])n1c(=O)cc2c3cc(ccc31)[C@](N)(c1cncn1C)c1ccc(C#N)c(c1)OCc1cccc-2c1` (racemic) [(R)-20, (R)-3-amino-2^1-(methyl-d3)-3-(1-methyl-1H-imidazol-5-yl)-2^2-oxo-2^1,2^2-dihydro-5-oxa-2(4,6)-quinolina-1,4(1,3)-dibenzenacyclohexaphane-4^4-carbonitrile], the IC50 is over 100 nM.

Take `Cn1cncc1[C@]1(N)c2ccc(C#N)c(c2)OCc2cccc(c2)-c2cc(C#N)nc3ccc1cc23` (racemic) [(R)-21, (R)-3-amino-3-(1-methyl-1H-imidazol-5-yl)-5-oxa-2(4,6)-quinolina-1,4(1,3)-dibenzenacyclohexaphane-2^2,4^4-dicarbonitrile]: the IC50 is over 100 nM.

In the case of `Cn1cncc1[C@]1(O)c2ccc(Cl)c(c2)OCCc2cccc(c2)-c2cc(=O)[nH]c3ccc1cc23` (racemic) [(R)-25, (R)-4^4-chloro-3-hydroxy-3-(1-methyl-1H-imidazol-5-yl)-2^1,2^2-dihydro-5-oxa-2(4,6)-quinolina-1,4(1,3)-dibenzenacycloheptaphan-2^2-one], the IC50 is over 100 nM.

As to `Cn1cncc1[C@]1(N)c2ccc(Cl)c(c2)OCCc2cccc(c2)-c2cc(=O)n(C)c3ccc1cc23` (racemic) [(R)-27, (R)-3-amino-4^4-chloro-2^1-methyl-3-(1-methyl-1H-imidazol-5-yl)-2^1,2^2-dihydro-5-oxa-2(4,6)-quinolina-1,4(1,3)-dibenzenacycloheptaphan-2^2-one], the IC50 was over 100 nM.

For `[2H]C([2H])([2H])n1c(=O)cc2c3cc(ccc31)[C@](O)(c1cncn1C)c1ccc(Cl)c(c1)OCCc1cccc-2c1` (racemic) [(R)-28, (R)-4^4-chloro-3-hydroxy-2^1-(methyl-d3)-3-(1-methyl-1H-imidazol-5-yl)-2^1,2^2-dihydro-5-oxa-2(4,6)-quinolina-1,4(1,3)-dibenzenacycloheptaphan-2^2-one], the IC50 is over 100 nM.

For the compound `Cn1cncc1[C@]1(O)c2ccc(Cl)c(c2)OCCc2cccc(c2)-c2cc(=O)n(C3CC3)c3ccc1cc23` (racemic) [(R)-29, (R)-4^4-chloro-2^1-cyclopropyl-3-hydroxy-3-(1-methyl-1H-imidazol-5-yl)-2^1,2^2-dihydro-5-oxa-2(4,6)-quinolina-1,4(1,3)-dibenzenacycloheptaphan-2^2-one], the half-maximal inhibitory concentration (IC50) was over 100 nM.

On to `Cn1cncc1[C@]1(N)c2ccc(Cl)c(c2)OCCc2cccc(c2)-c2cc(=O)n(C3CC3)c3ccc1cc23` (racemic) [(R)-30, (R)-3-amino-4^4-chloro-2^1-cyclopropyl-3-(1-methyl-1H-imidazol-5-yl)-2^1,2^2-dihydro-5-oxa-2(4,6)-quinolina-1,4(1,3)-dibenzenacycloheptaphan-2^2-one], for which the IC50 was over 100 nM.

`[2H]C([2H])([2H])n1c(=O)cc2c3cc(ccc31)[C@](N)(c1nncn1C)c1ccc(Cl)c(c1)OCCc1cccc-2c1` (racemic) [(R)-34, (R)-3-amino-4^4-chloro-2^1-(methyl-d3)-3-(4-methyl-4H-1,2,4-triazol-3-yl)-2^1,2^2_ dihydro-5-oxa-2(4,6)-quinolina-1,4(1,3)-dibenzenacycloheptaphan-2^2-one]: the IC50 is over 100 nM.

As for `Cn1cnnc1[C@]1(N)c2ccc(Cl)c(c2)OCCc2cccc(c2)-c2cc(=O)n(C3CC3)c3ccc1cc23` (racemic) [(R)-35, (R)-3-amino-4^4-chloro-2^1-cyclopropyl-3-(4-methyl-4H-1,2,4-triazol-3-yl)-2^1,2^2-dihydro-5-oxa-2(4,6)-quinolina-1,4(1,3)-dibenzenacycloheptaphan-2^2-one], the IC50 was over 100 nM.

For the compound `Cn1cncc1[C@]1(O)c2ccc(C#N)c(c2)OCCc2cccc(c2)-c2cc(=O)n(C)c3ccc1cc23` (racemic) [(R)-36, (R)-3-hydroxy-2^1-methyl-3-(1-methyl-1H-imidazol-5-yl)-2^2-oxo-2^1,2^2-dihydro-5-oxa-2(4,6)-quinolina-1,4(1,3)-dibenzenacycloheptaphane-4^4-carbonitrile], the IC50 is over 100 nM.

Consider `Cn1cncc1[C@]1(N)c2ccc(C#N)c(c2)OCCc2cccc(c2)-c2cc(=O)n(C)c3ccc1cc23` (racemic) [(R)-37, (R)-3-amino-2^1-methyl-3-(1-methyl-1H-imidazol-5-yl)-2^2-oxo-2^1,2^2-dihydro-5-oxa-2(4,6)-quinolina-1,4(1,3)-dibenzenacycloheptaphane-4^4-carbonitrile], for which the IC50 is over 100 nM.

With `Cn1cnnc1[C@]1(N)c2ccc(C#N)c(c2)OCCc2cccc(c2)-c2cc(=O)n(C)c3ccc1cc23` (racemic) [(R)-39, (R)-3-amino-21-methyl-3-(4-methyl-4H-1,2,4-triazol-3-yl)-2^2-oxo-2^1,2^2-dihydro-5-oxa-2(4,6)-quinolina-1,4(1,3)-dibenzenacycloheptaphane-4^4-carbonitrile], the IC50 is over 100 nM.

On to `Cn1cncc1[C@]1(N)c2ccc(Cl)c(c2)COc2cccc(c2)-c2cc(=O)n(C)c3ccc1cc23` (racemic) [(R)-46, (R)-3-amino-4^4-chloro-2^1-methyl-3-(1-methyl-1H-imidazol-5-yl)-2^1,2^2-dihydro-6-oxa-2(4,6)-quinolina-1,4(1,3)-dibenzenacyclohexaphan-2^2-one], for which the half-inhibitory concentration (IC50) was over 100 nM.

With `[2H]C([2H])([2H])n1c(=O)cc2c3cc(ccc31)[C@](N)(c1cncn1C)c1ccc(Cl)c(c1)COc1cccc-2c1` (racemic) [(R)-47, (R)-3-amino-4^4-chloro-2^1-(methyl-d3)-3-(1-methyl-1H-imidazol-5-yl)-2^1,2^2-dihydro-6-oxa-2(4,6)-quinolina-1,4(1,3)-dibenzenacyclohexaphan-2^2-one], the IC50 is over 100 nM.

For the compound `Cn1cncc1[C@]1(N)c2ccc(Cl)c(c2)COc2cccc(c2)-c2cc(C#N)nc3ccc1cc23` (racemic) [(R)-48, (R)-3-amino-4^4-chloro-3-(1-methyl-1H-imidazol-5-yl)-6-oxa-2(4,6)-quinolina-1,4(1,3)-dibenzenacyclohexaphane-2^2-carbonitrile], the IC50 was in the range of 10 to 100 nM.

`Cn1cnnc1[C@]1(N)c2ccc(Cl)c(c2)COc2cccc(c2)-c2cc(=O)n(C)c3ccc1cc23` (racemic) [(R)-51, (R)-3-amino-4^4-chloro-2^1-methyl-3-(4-methyl-4H-1,2,4-triazol-3-yl)-2^1,2^2-dihydro-6-oxa-2(4,6)-quinolina-1,4(1,3)-dibenzenacyclohexaphan-2^2-one]: the IC50 was over 100 nM.
